Results from US10435406B2, “6,7-cyclicmorphinan derivatives and use thereof” (Purdue Pharma L.P., priority 2014, dated 2019).

How the values were obtained:
Type in all cases: biochemical
[1] = biological target: T1, μ-opioid receptor (Homo sapiens (Human), UniProt P35372); assay: μ-opioid receptor [35S]GTPγS functional assay (HEK); conditions: for Emax: relative to DAMGO
Description: (§1) [^35S]GTPγS functional assays were conducted using freshly thawed μ-receptor membranes prepared in-house from a cell line expressing recombinant μ opioid receptor in a HEK-293, CHO or U-2 OS cell background, or purchased from a commercial source (Perkin Elmer, Shelton, Conn.; or DiscovRx, Fremont, Calif.). Assay reactions were prepared by sequentially adding the following reagents to binding buffer (100 mM NaCl, 10 mM MgCl2, 20 mM HEPES, pH 7.4) on ice (final concentrations indicated): membrane protein (0.026 mg/mL), saponin ([…]), GDP ([…]) and [^35S]GTPγS (0.20 nM; Perkin Elmer, Shelton, Conn.). The prepared membrane solution (190 μl/well) was transferred to 96-shallow well polypropylene plates containing 10 μl of 20× concentrated stock solutions of the agonist [D-Ala^2, N-methyl-Phe^4 Gly-ol^5]-enkephalin (DAMGO) prepared in dimethyl sulfoxide (DMSO). Plates were incubated for […] at about 25° C. with shaking. Reactions were terminated by rapid filtration onto 96-well Unifilter GF/B filter plates (Perkin Elmer, Shelton, Conn.) using a 96-well tissue harvester (Perkin Elmer, Shelton, Conn.) followed by three filtration washes with 200 μl of ice-cold wash buffer (10 mM NaH2PO4, 10 mM Na2HPO4, pH 7.4). Filter plates were subsequently dried at 50° C. for 2-3 hours. BetaScint scintillation cocktail (Perkin Elmer, Shelton, Conn.) was added (50 μl/well) and plates were counted using a Packard Top-Count for 1 min/well. Data were analyzed using the sigmoidal dose-response curve fitting functions in GraphPad PRISM v. 3.0, or an in-house function for non-linear, sigmoidal dose-response curve-fitting.
(§2) μ GTP EC50 is the concentration of a compound providing 50% of the maximal response for the compound at a μ-opioid receptor.
(§3) μ GTP Emax (%) is the maximal effect elicited by a compound relative to the effect elicited by DAMGO, a standard agonist. Generally, the μ GTP Emax (%) value measures the efficacy of a compound to treat or prevent pain or other Conditions.
(§4) In TABLE 3, activity response of certain Compounds of the Invention to the μ- and κ-opioid receptors was determined as described above for functional assays using HEK cells.

[2] = biological target: T1, μ-opioid receptor; assay: μ-opioid receptor [35S]GTPγS functional assay (U-2 OS); conditions: for Emax: U2OS, GTPγS, relative to DAMGO
Description: as §1, §2, §3
(§5) In TABLE 4, activity response of certain Compounds of the Invention to the μ- and κ-opioid receptors was determined as described above for functional assays using U-2 OS cells.

[3] = biological target: T2, κ opioid receptor (Homo sapiens (Human), UniProt P41145); assay: κ-opioid receptor [35S]GTPγS functional assay (U-2 OS); conditions: for Emax: U2OS, GTPγS, relative to U69,593
Description: (§6) Functional [^35S]GTPγS binding assays were conducted as follows. K opioid receptor membrane solution was prepared by sequentially adding final concentrations of 0.026 μg/μl membrane protein (in-house), 10 μg/mL saponin, 3 μM GDP and 0.20 nM [^35S]GTPγS to binding buffer (100 mM NaCl, 10 mM MgCl2, 20 mM HEPES, pH 7.4) on ice. The prepared membrane solution (190 μl/well) was transferred to 96-shallow well polypropylene plates containing 10 μl of 20× concentrated stock solutions of agonist prepared in DMSO. Plates were incubated for 30 min at a temperature of about 25° C. with shaking. Reactions were terminated by rapid filtration onto 96-well Unifilter GF/B filter plates (Perkin Elmer, Shelton, Conn.) using a 96-well tissue harvester (Packard) and followed by three filtration washes with 200 μl ice-cold binding buffer (10 mM NaH2PO4, 10 mM Na2HPO4, pH 7.4). Filter plates were subsequently dried at 50° C. for 2-3 hours. Fifty μl/well scintillation cocktail (Perkin Elmer, Shelton, Conn.) was added and plates were counted in a Packard Top-Count for 1 min/well.
(§7) GTP EC50 is the concentration of a compound providing 50% of the maximal response for the compound at a κ receptor.
(§8) κ GTP Emax (%) is the maximal effect elicited by a compound relative to the effect elicited by U69,593.
as §5

[4] = biological target: T2, κ opioid receptor; assay: κ-opioid receptor [35S]GTPγS functional assay (HEK); conditions: for Emax: HEK, GTPγS, relative to U69,593
Description: as §6, §7, §8, §4

SMILES	EC50 [1] [µM]	Emax ([1]; HEK, GTPγS) [%]	EC50 [2] [nM]	Emax [2] [%]	EC50 [3] [nM]	Emax [3] [%]	EC50 ([1]; HEK, GTPγS, bound given in μM, read-out: μ EC50) [µM]	EC50 [4] [nM]	Emax [4] [%]
COc1ccc2c(c1)[C@]13CCN(CC4CC4)[C@H](C2)[C@]1(O)C[C@H]1CC(=O)N(CC2CC2)[C@H]1C3 [Compound 14, (6R,6aS,7aS,10aS,11aR)-10,14-bis(cyclopropylmethyl)-6a-hydroxy-2-methoxy-5,6,6a,7,7a,8,10a,11-octahydro-6,11a-(epiminoethano)naphtho[2,1-f]indol-9(10H)-one]	0.146 ± 0.0211	13.2 ± 0.95	49.5 ± 3.87	43.7 ± 4.7	16.6 ± 1.93	101.8 ± 0.63			
COc1ccc2c(c1)[C@]13CCN(CC4CC4)[C@H](C2)[C@]1(O)C[C@H]1CC(=O)N(CC(C)C)[C@H]1C3 [Compound 13, (6R,6aS,7aS,10aS,11aR)-14-(cyclopropylmethyl)-6a-hydroxy-10-isobutyl-2-methoxy-5,6,6a,7,7a,8,10a,11-octahydro-6,11a-(epiminoethano)naphtho[2,1-f]indol-9(10H)-one]	0.224 ± 0.0346	13.2 ± 1.39	82.2 ± 1.71	55 ± 2	19.5 ± 1.37	106 ± 2.4			
COc1ccc2c(c1)[C@]13CCN(CC4CC4)[C@H](C2)[C@]1(O)C[C@H]1CC(=O)N(C)[C@H]1C3 [Compound 15, (6R,6aS,7aS,10aS,11aR)-14-(cyclopropylmethyl)-6a-hydroxy-2-methoxy-10-methyl-5,6,6a,7,7a,8,10a,11-octahydro-6,11a-(epiminoethano)naphtho[2,1-f]indol-9(10H)-one]	0.863 ± 0.0697	23.6 ± 2.32	349 ± 26.3	75 ± 3	113 ± 36.3	129 ± 5			
O=C1C[C@@H]2C[C@@]3(O)[C@H]4Cc5ccc(O)cc5[C@@]3(CCN4CC3CC3)C[C@@H]2N1CC1CC1 [Compound 17, (6R,6aS,7aS,10aS,11aR)-10,14-bis(cyclopropylmethyl)-2,6a-dihydroxy-5,6,6a,7,7a,8,10a,11-octahydro-6,11a-(epiminoethano)-naphtho[2,1-f]indol-9(10H)-one]	> 20	1							
O=C1C[C@@H]2C[C@@]3(O)[C@H]4Cc5ccc(O)cc5[C@@]3(CCN4CC[C@@]3(c4ccccn4)CCOC4(CCCC4)C3)C[C@@H]2N1 [Compound 7, (6R,6aS,7aS,10aS,11aR)-2,6a-dihydroxy-14-(2-((R)-9-(pyridin-2-yl)-6-oxaspiro-[4.5]decan-9-yl)ethyl)-5,6,6a,7,7a,8,10a,11-octahydro-6,11a-(epiminoethano)-naphtho[2,1-f]indol-9(10H)-one]		4.5					> 20		
COc1ccc2c(c1)[C@]13CCN(C)[C@H](C2)[C@]1(O)C[C@H]1CC(=O)N[C@H]1C3 [Compound 3, (6R,6aS,7aS,10aS,11aR)-6a-hydroxy-2-methoxy-14-methyl-5,6,6a, 7,7a,8,10a,11-octahydro-6,11a-(epiminoethano)naphtho[2,1-f]indol-9(10H)-one]	2.28	106 ± 0.58	92.9 ± 6.03	102.7 ± 0.67	> 20000	108 ± 9.39		18800 ± 4870	52 ± 6.11
COc1ccc2c(c1)[C@]13CCN(CC4CC4)[C@H](C2)[C@]1(O)CC1=CC(=O)NC1C3 (stereo partly drawn) [Compound 8, (6R,6aS,11aR)-14-(cyclopropylmethyl)-6a-hydroxy-2-methoxy-5,6,6a,7,10a,11-hexahydro-6,11a-(epiminoethano)naphtho[2,1-f]indol-9(10H)-one]	> 20	-0.33 ± 0.67	846 ± 72.5	49 ± 1	585 ± 29.3	115 ± 3.53		1750 ± 197	66.7 ± 1.33
O=C1C[C@@H]2C[C@@]3(O)[C@H]4Cc5ccc(O)cc5[C@@]3(CCN4CC3CCOCC3)C[C@@H]2N1 [Compound 6, (6R,6aS,7aS,10aS,11aR)-2,6a-dihydroxy-14-((tetrahydro-2H-pyran-4-yl)methyl)-5,6,6a,7,7a,8,10a,11-octahydro-6,11a-(epiminoethano)naphtho[2,1-f]indol-9(10H)-one]	1.47	7.33 ± 0.88							
CN1C(=O)C[C@@H]2C[C@@]3(O)[C@H]4Cc5ccc(O)cc5[C@@]3(CCN4CC3CC3)C[C@@H]21 [Compound 12, (6R,6aS,7aS,10aS,11aR)-14-(cyclopropylmethyl)-2,6a-dihydroxy-10-methyl-5,6,6a,7,7a,8,10a,11-octahydro-6,11a-(epiminoethano)naphtho[2,1-f]indol-9(10H)-one]	0.00218 ± 2.1e-05	29.3 ± 0.33						0.66 ± 0.014	106 ± 6.78
CN1CC[C@]23C[C@@H]4OC(=O)N[C@H]4C[C@@]2(O)[C@H]1Cc1ccc(O)cc13 [Compound 20, (6R,6aS,7aS,10aS,11aR)-2,6a-dihydroxy-14-methyl-5,6,6a,7,7a,8,10a,11-octahydro-9H-6,11a-(epiminoethano)phenanthro[2,3-d]oxazol-9-one]	1.31	12.4 ± 0.77							
COc1ccc2c(c1)[C@]13CCN(C)[C@H](C2)[C@]1(O)CC1=CC(=O)N[C@H]1C3 [Compound 2, (6R,6aS,10aS,11aR)-6a-hydroxy-2-methoxy-14-methyl-5,6,6a,7,10a,11-hexahydro-6,11a-(epiminoethano)naphtho[2,1-f]indol-9(10H)-one]	12.3 ± 0.615	51.8 ± 0.39	738 ± 59	103.3 ± 0.67	> 20000	84.7 ± 2.73			
COc1ccc2c(c1)[C@]13CCN(C)[C@H](C2)[C@]1(O)C[C@@H]1NC(=O)O[C@@H]1C3 [Compound 19, (6R,6aS,7aS,10aR,11aR)-6a-hydroxy-2-methoxy-14-methyl-5,6,6a,7,7a,8,10a,11-octahydro-9H-6,11a-(epiminoethano)phenanthro[2,3-d]oxazol-9-one]	> 20	2 ± 0.58							
O=C1C=C2C[C@@]3(O)[C@H]4Cc5ccc(O)cc5[C@]3(C=C2N1CC1CC1)CCN4CC1CC1 [Compound 18, (6R,6aS,11aR)-10,14-bis(cyclopropylmethyl)-2,6a-dihydroxy-5,6,6a,7-tetrahydro-6,11a-(epiminoethano)naphtho[2,1-f]indol-9(10H)-one]	> 20	6							
O=C1C[C@@H]2C[C@@]3(O)[C@H]4Cc5ccc(O)cc5[C@@]3(CCN4CCCc3ccccc3)C[C@@H]2N1 [Compound 4, (6R,6aS,7aS,10aS,11aR)-2,6a-dihydroxy-14-(3-phenylpropyl)-5,6,6a,7,7a,8,10a,11-octahydro-6,11a-(epiminoethano)naphtho[2,1-f]indol-9(10H)-one]	0.321 ± 0.0206	47.3 ± 7.26							
CCN1C(=O)C[C@@H]2C[C@@]3(O)[C@H]4Cc5ccc(OC)cc5[C@@]3(CCN4CC3CC3)C[C@@H]21 [Compound 11, (6R,6aS,7aS,10aS,11aR)-14-(cyclopropylmethyl)-10-ethyl-6a-hydroxy-2-methoxy-5,6,6a,7,7a,8,10a,11-octahydro-6,11a-(epiminoethano)naphtho[2,1-f]indol-9(10H)-one]	0.625 ± 0.0326	36.4 ± 2.23	204 ± 11.2	78 ± 3	16.9 ± 1.96	107 ± 3.94			
